In ChEMBL document CHEMBL1201862, “PubChem BioAssay data set” (2004):
The source made the active and inactive calls.

Tests used:
[1] = system: HEK293; assay: inhibitors of LMP1-driven NF-kB reporter, dose response, cell-based, HEK293, luciferase, cherry-pick (AID 588343); type: functional; settings: Homo sapiens
[2] = Shn3 3'UTR reporter inhibitors, dose response, cell-based, Clone20 osteoblasts, firefly luciferase, cherry-picked (AID 624132); type: functional;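 also: firefly luciferase luminescence from reporter carrying the Shn3 3'UTR in osteoblasts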
[3] = control 3'UTR Renilla luciferase suppression, dose response, counter-screen for Shn3 inhibitor project, cell-based, Clone20-Shn3RL, cherry-picked (AID 624133); type: functional
[4] = biological target: T1, Protein skinhead-1 (Caenorhabditis elegans, UniProt P34707); type: functional
T1 sequence (P34707 whole entry): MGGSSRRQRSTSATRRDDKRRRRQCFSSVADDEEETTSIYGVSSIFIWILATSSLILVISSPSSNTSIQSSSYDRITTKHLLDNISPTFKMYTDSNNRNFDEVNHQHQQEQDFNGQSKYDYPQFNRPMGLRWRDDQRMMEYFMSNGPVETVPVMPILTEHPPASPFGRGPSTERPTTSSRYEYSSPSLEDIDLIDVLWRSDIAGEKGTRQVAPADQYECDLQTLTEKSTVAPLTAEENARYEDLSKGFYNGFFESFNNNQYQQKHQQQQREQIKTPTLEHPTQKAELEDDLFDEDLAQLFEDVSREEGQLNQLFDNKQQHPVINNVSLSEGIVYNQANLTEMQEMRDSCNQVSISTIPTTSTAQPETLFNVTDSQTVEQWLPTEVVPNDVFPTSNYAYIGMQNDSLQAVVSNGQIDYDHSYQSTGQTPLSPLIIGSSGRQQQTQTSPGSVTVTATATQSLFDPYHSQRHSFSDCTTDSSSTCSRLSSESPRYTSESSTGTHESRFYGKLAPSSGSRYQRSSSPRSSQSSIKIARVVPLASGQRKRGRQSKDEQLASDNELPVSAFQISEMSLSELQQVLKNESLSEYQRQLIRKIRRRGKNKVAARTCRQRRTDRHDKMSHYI

[5] = biological target: Cytochrome P450 2C9 (Homo sapiens, UniProt P11712)
Chain of Cytochrome P450 2C9 (P11712 whole entry): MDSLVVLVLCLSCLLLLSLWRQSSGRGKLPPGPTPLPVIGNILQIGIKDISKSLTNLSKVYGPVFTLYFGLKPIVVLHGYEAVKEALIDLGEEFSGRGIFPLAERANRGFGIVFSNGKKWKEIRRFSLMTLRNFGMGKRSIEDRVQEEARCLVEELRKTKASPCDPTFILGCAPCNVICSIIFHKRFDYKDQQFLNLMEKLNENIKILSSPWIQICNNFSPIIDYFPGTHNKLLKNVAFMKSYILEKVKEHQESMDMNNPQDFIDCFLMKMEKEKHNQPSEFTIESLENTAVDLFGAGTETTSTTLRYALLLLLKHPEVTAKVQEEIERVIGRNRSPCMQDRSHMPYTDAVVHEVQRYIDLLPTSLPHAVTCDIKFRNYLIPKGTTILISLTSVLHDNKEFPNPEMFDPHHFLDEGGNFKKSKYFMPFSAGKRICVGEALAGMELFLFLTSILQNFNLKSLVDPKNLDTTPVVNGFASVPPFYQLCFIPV

[6] = biological target: T2, Caspase-3 (Homo sapiens, UniProt P42574); type: functional;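 also: Dose-response selectivity test against caspase-3 for candidate inhibitors of sentrin-specific proteases (SENPs)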
T2 sequence (P42574 whole entry): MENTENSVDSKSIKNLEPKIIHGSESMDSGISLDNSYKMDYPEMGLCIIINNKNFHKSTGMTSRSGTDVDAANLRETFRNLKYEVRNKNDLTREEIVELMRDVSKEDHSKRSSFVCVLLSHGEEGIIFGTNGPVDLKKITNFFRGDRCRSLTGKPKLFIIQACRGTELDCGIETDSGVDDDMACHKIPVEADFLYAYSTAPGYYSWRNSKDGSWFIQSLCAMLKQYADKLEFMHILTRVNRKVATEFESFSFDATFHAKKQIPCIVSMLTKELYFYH

[7] = biological target: T3, Sentrin-specific protease 7 (Homo sapiens, UniProt Q9BQF6); type: functional;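 also: Luminescence-based dose-response confirmation of ultra-high-throughput screening hits, measuring inhibition of SENP7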
T3 sequence (Q9BQF6 whole entry): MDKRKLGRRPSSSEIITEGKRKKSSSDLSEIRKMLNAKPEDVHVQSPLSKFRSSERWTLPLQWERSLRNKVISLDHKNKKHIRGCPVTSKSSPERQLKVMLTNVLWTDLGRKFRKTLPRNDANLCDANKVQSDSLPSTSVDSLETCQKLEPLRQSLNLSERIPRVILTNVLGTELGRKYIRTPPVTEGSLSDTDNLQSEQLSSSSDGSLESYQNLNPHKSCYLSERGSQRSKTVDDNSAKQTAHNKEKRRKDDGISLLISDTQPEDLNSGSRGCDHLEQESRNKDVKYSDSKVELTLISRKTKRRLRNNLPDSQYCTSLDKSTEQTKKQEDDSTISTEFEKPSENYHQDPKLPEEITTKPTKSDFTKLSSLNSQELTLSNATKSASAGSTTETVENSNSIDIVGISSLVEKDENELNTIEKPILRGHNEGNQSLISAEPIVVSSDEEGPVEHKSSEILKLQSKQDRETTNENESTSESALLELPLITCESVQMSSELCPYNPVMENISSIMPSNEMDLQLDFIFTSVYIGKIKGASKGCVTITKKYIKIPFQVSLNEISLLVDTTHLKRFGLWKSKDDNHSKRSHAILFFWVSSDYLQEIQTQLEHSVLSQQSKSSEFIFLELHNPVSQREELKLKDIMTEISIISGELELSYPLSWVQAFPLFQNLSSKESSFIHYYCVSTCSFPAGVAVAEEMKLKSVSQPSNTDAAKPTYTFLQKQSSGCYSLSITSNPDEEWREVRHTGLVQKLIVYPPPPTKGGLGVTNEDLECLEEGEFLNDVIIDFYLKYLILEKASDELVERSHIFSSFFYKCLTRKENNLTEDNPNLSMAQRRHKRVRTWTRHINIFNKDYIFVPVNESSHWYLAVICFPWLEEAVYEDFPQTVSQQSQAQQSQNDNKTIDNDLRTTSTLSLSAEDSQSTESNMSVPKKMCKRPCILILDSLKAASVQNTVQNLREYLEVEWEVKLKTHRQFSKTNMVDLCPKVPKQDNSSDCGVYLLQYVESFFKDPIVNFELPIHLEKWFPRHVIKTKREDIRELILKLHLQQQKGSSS

[8] = biological target: T4, Sentrin-specific protease 6 (Homo sapiens, UniProt Q9GZR1); type: functional;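 also: Luminescence-based dose-response confirmatory assay of SENP6 inhibition, following up an ultra-high-throughput screen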
T4 sequence (Q9GZR1 whole entry): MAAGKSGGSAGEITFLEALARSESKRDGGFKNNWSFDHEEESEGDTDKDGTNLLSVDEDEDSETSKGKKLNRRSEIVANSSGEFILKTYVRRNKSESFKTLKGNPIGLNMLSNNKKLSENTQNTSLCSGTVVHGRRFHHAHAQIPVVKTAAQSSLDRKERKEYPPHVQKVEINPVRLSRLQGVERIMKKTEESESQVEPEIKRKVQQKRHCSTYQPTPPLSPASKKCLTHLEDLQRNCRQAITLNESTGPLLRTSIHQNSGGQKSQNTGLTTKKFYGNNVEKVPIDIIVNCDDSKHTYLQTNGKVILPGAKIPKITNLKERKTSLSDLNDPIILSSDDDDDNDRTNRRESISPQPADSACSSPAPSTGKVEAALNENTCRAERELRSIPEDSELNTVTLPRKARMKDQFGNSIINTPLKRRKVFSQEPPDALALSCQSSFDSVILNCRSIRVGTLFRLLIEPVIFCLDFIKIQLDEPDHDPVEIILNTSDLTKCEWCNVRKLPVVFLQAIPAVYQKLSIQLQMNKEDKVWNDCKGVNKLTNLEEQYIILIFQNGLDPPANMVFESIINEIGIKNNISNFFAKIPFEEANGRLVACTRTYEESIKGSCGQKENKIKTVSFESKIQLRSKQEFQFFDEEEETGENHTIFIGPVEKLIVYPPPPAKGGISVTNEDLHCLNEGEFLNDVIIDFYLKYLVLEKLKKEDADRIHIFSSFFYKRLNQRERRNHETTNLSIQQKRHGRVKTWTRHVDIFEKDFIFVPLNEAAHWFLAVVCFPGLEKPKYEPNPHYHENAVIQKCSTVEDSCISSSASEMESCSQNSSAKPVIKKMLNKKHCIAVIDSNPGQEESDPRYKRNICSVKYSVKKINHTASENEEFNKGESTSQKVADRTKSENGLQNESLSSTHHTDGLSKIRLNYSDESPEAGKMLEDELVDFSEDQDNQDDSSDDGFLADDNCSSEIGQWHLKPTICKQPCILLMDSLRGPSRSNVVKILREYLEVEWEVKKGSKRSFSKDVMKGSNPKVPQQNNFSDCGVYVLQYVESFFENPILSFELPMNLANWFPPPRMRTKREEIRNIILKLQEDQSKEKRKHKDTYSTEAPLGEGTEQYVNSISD

[9] = biological target: T5, Sentrin-specific protease 8 (Homo sapiens, UniProt Q96LD8); type: functional;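 also: luminescence read-out of SENP8 inhibition, dose-response confirmation following an ultra-high-throughput screen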
T5 sequence (Q96LD8 whole entry): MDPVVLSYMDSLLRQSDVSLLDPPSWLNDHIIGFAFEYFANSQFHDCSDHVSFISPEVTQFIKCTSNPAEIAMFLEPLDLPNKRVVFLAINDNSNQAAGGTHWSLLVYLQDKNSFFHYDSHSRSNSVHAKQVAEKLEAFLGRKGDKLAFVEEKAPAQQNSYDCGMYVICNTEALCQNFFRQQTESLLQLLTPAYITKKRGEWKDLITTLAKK

IC50 [6]	IC50 [7]	IC50 [8]	Compound	AC50 [1]	AC50 [2]	AC50 [3]	IC50 [4]	AC50 [5]	IC50 [9]
			Cc1ccc(-c2nc3cccnc3o2)cc1NC(=O)COc1ccc(C(C)(C)C)cc1	36.3 µM (active)	10.8 µM (active)	14.6 µM (active)	> 100 µM (inactive)		
			Cc1cccc(CNc2ncnc3ccc(-c4ccoc4)cc23)c1	35.1 µM (active)				1 µM (inconclusive)	
20.3 µM (active)	8.26 µM (active)	33.5 µM (active)	O=C(Nc1cccs1)Nc1ccccc1Br						57.6 µM (active)
